{"source": "paper PMC11396062", "about": "“The n-Butanol Extract Obtained from the Inner Bark of Tabebuia rosea (Bertol.) DC, Specioside, and Catalposide Induce Leukemia Cell Apoptosis in the Presence of Apicidin” (Molecules, 2024)", "key": {"THP-1 cells [1]": {"tested_on": "THP-1 cells", "assay": "Cell cycle analysis by flow cytometry", "type": "cell-based, human", "conditions": "THP-1, APC pretreatment", "description": "After treatment with the extract, 7 × 10^4 cells were harvested, washed with PBS, fixed with 200 µL of ice-cold 70% ethanol, and maintained at 4 °C for 4 h before staining. The cell pellet was washed in 1X PBS, resuspended in 200 µL of Guava Cell Cycle reagent (#4500-0220, Millipore), and incubated in the dark at 37 °C for 30 min before analysis with a Guava flow cytometer (Merck Millipore, Bedford, MA, USA) using InCyte software (version 3.1, Merck Millipore).. Centrifugation was performed at 1200 rpm for 5 min at room temperature for each step."}, "THP-1 cells [2]": {"tested_on": "THP-1 cells", "assay": "Fluorescence microscopy of nuclear morphology (propidium iodide and Hoechst staining)", "type": "cell-based, human", "conditions": "THP-1, APC pretreatment, extract 25 μg/mL", "description": "Fluorescence microscopy was used to observe cell nuclear morphology, followed by propidium iodide (50 µg/mL) and Hoechst 333342 (1 mg/mL) staining. THP-1 cells (1 × 10^5 cells/well) were treated with fresh media (control) and with 25, 50, or 100 µg/mL extract for 24 h; 400 µM doxorubicin was used as a positive control. Further, 10 microliters of the cell suspension was mixed with 90 µL of the dye, incubated in a water bath for 5 min at 37 °C, and wrapped in aluminum foil. The cells were examined under an Olympus IX53 fluorescence microscope (Olympus Corporation, Tokyo, Japan). The following formula was used to calculate the percentage of apoptotic cells."}, "THP-1 cells [3]": {"tested_on": "THP-1 cells", "assay": "Mitochondrial membrane potential (JC-1)", "type": "cell-based, human", "conditions": "THP-1, JC-1, 24 h", "description": "The Λᴪm was measured using a Guava Mitochondrial Depolarization Kit (4500-0250 Millipore, Darmstadt, Germany). After pretreatment with 1 µM apicidin for 24 h, the cells were exposed to various concentrations of the extract (25, 50, and 100 µg/mL) for 24 h. The cells were collected and suspended in 100 µL of PBS containing JC-1 and 7-AAD after incubation at 37 °C for 15 min. The fluorescence intensity of the cells was analyzed in a Guava Millipore flow cytometer (Merck Millipore, Bedford, MA, USA) using InCyte software (version 3.1, Merck Millipore)."}, "THP-1 cells [4]": {"tested_on": "THP-1 cells", "assay": "Flow cytometric apoptosis, Annexin V-CF647/7-AAD", "type": "cell-based, human", "conditions": "THP-1, 24 h, apicidin pretreatment", "description": "In 96-well plates, 8 × 10^4 cells were treated with 25, 50, and 100 µg/mL extract and 400 µM doxorubicin (positive control) for 24 and 48 h. The cells were washed with 1X PBS, and apoptotic cells were detected by staining with 100 µL of Annexin V-CF647 and 5 µL of the 7-AAD Apoptosis Annexin Red Kit (FCCH100108 FlowCellect, Millipore, Darmstadt, Germany). The cells were incubated at room temperature for 15 min in the dark and analyzed on a Guava Millipore flow cytometer (Merck Millipore, Bedford, MA, USA) using InCyte software (version 3.1, Merck Millipore). The percentage of annexin V-positive cells was evaluated."}, "Jurkat cells": {"tested_on": "Jurkat cells", "assay": "MTT cell viability assay, Jurkat cells", "type": "cell-based, human", "conditions": "for IC50: Homo sapiens, Jurkat, MTT, n = 3; for SI (selectivity index): IC50 PBMC / IC50 Jurkat", "description": "(§1) Jurkat and THP-1 cell lines were purchased from the American Type Culture Collection (ATCC, Rockville, MD, USA); Jurkat is a human lymphocytic cell line representing acute T-cell leukemia, and THP-1 is a monocytic cell line that represents acute myelogenous leukemia (AML). […] Cat Nos. […] The cells were maintained at 37 °C in a humidified atmosphere with 5% CO2. The culture medium was exchanged with fresh medium every 2-3 days. Peripheral blood mononuclear cells (PBMCs) were isolated from normal human venous blood. Further, 10 milliliters of human blood was mixed with 10 mL of RPMI-1640 containing 50 μL of heparin and gradually poured over 1 mL of HISTOPAQUE®-1119 (Sigma). The plasma was removed by centrifugation at 3000 rpm for 30 min. The peripheral blood mononuclear cell-containing layer was collected with a pipette and diluted in 4 mL of PBS. PBMCs were harvested by centrifugation at 1500 rpm for 10 min at room temperature, resuspended in RPMI-1640 with 10% FBS, and incubated at 37 °C in 5% CO2 humidified air. […] Doxorubicin was used as a reference standard drug (positive control). After treatment, the medium was discarded; 200 μL of RPMI 1640 medium without phenol red containing 0.5 mg/mL MTT (Sigma Chemical Co., Saint Louis, MO, USA; Cat. No. […] The plates were incubated for four hours at 37 °C with 5% CO2 in a humidified atmosphere. The medium was discarded, and 100 μL of DMSO was added to solubilize the formazan crystals. The absorbance was measured with an ELISA microplate reader at 492 nm (ELx800; BioTek Instruments Inc., Winooski, VT, USA). The percentage of viable cells was calculated on the basis of the nontreated control (taken as 100%). […] Three independent assays were performed, each in triplicate. The selectivity index corresponds to the ratio of the IC50 value calculated for the activity of synthesized compounds on a regular cell line (PBMCs) to that of the IC50 calculated for cancer cell lines (Jurkat and THP-1). Values greater than two were optimal for an efficient selectivity index."}, "THP-1 cells [5]": {"tested_on": "THP-1 cells", "assay": "MTT cell viability assay, THP-1 cells", "type": "cell-based, human", "conditions": "for IC50: Homo sapiens, MTT, n = 3, read-out: IC50", "description": "as §1"}, "[6]": {"tested_on": "Peripheral blood mononuclear cells (PBMCs)", "assay": "MTT cell viability assay, PBMC (normal cells)", "type": "cell-based", "conditions": "Homo sapiens, n = 3", "description": "Jurkat and THP-1 cell lines were purchased from the American Type Culture Collection (ATCC, Rockville, MD, USA); Jurkat is a human lymphocytic cell line representing acute T-cell leukemia, and THP-1 is a monocytic cell line that represents acute myelogenous leukemia (AML). Jurkat and THP-1 cells were maintained in RPMI 1640 medium (Sigma) supplemented with 10% heat-inactivated fetal bovine serum (FBS) (Gibco Cat No. 16140071, Waltham, MA USA), 200 μg/mL penicillin, 200 μg/mL streptomycin, 400 μg/mL neomycin (GIBCO, Cat No. 15640-055), 5 μg/mL amphotericin, and 1 mM sodium pyruvate (all from Sigma Chemical Co., Saint Louis, MO, USA; Cat Nos. A9528-50 MG, M7522-100ML, and S8636-100ML, respectively). The cells were maintained at 37 °C in a humidified atmosphere with 5% CO2. The culture medium was exchanged with fresh medium every 2–3 days. Peripheral blood mononuclear cells (PBMCs) were isolated from normal human venous blood. Further, 10 milliliters of human blood was mixed with 10 mL of RPMI-1640 containing 50 µL of heparin and gradually poured over 1 mL of HISTOPAQUE®-1119 (Sigma). The plasma was removed by centrifugation at 3000 rpm for 30 min. The peripheral blood mononuclear cell-containing layer was collected with a pipette and diluted in 4 mL of PBS. PBMCs were harvested by centrifugation at 1500 rpm for 10 min at room temperature, resuspended in RPMI-1640 with 10% FBS, and incubated at 37 °C in 5% CO2 humidified air.\nCell viability was determined by measuring the mitochondrial activity of live cells via the metabolism of the tetrazolium substrate 3-(4,5-dimethylthiazol-2-yl)-2,5-diphenyl tetrazolium bromide (MTT) and converting it to purple formazan crystals. Briefly, the cells (2 × 10^4 cells/well) were treated with 25, 50, 100, 200, or 400 μg/mL extract diluted in DMSO (at a final concentration of 0.5%) and incubated for 12, 24, or 48 h. Catalposide and specioside were tested at concentrations of 20, 50, and 100 μg/mL for 12, 24, and 48 h. For apicidin, 0.5, 1, and 2 μM apicidin were tested for 24 and 48 h. Doxorubicin was used as a reference standard drug (positive control). After treatment, the medium was discarded; 200 μL of RPMI 1640 medium without phenol red containing 0.5 mg/mL MTT (Sigma Chemical Co., Saint Louis, MO, USA; Cat. No. M2128-500MG) was then added to each well. The plates were incubated for four hours at 37 °C with 5% CO2 in a humidified atmosphere. The medium was discarded, and 100 μL of DMSO was added to solubilize the formazan crystals. The absorbance was measured with an ELISA microplate reader at 492 nm (ELx800; BioTek Instruments Inc., Winooski, VT, USA). The percentage of viable cells was calculated on the basis of the nontreated control (taken as 100%). The IC50 (concentration causing a 50% reduction in cellular viability) values for all the tested compounds were evaluated in Excel using the nonlinear regression curve method. Three independent assays were performed, each in triplicate."}}, "note": "Like-named read-outs stand apart in the source and are kept apart here."}
{"compound": "CCC(=O)CCCCC[C@@H]1NC(=O)[C@H]2CCCCN2C(=O)[C@H]([C@@H](C)CC)NC(=O)[C@H](Cc2cn(OC)c3ccccc23)NC1=O", "note": "[APC, apicidin]", "values": [{"measurement": "G0/G1 phase arrest with APC pretreatment", "setting": "THP-1 cells [1]", "result": "increased"}, {"measurement": "apoptosis (nuclear morphology) after APC pretreatment", "setting": "THP-1 cells [2]", "result": "increased apoptosis"}, {"measurement": "depolarization of the mitochondrial membrane", "setting": "THP-1 cells [3]", "result": "decreased mitochondrial membrane polarization"}, {"measurement": "percentage of apoptotic cells, apicidin pretreatment compared with catalposide or specioside treatment", "setting": "THP-1 cells [4]", "result": "increased the percentage of apoptotic cells"}]}
{"compound": "COc1cccc2c1C(=O)c1c(O)c3c(c(O)c1C2=O)C[C@@](O)(C(=O)CO)C[C@@H]3O[C@H]1C[C@H](N)[C@H](O)[C@H](C)O1", "note": "[Doxorubicin, reference compound]", "values": [{"measurement": "IC50", "setting": "Jurkat cells; 12 h", "result": "0.339 ± 1.2", "unit": "mg/L"}, {"measurement": "IC50", "setting": "Jurkat cells; 24 h", "result": "0.258 ± 0.1", "unit": "mg/L"}, {"measurement": "IC50", "setting": "Jurkat cells; 48 h", "result": 0.05, "unit": "mg/L"}, {"measurement": "SI (selectivity index)", "setting": "Jurkat cells; 12 h", "result": 4.02}, {"measurement": "SI (selectivity index)", "setting": "Jurkat cells; 24 h", "result": 0.86}, {"measurement": "SI (selectivity index)", "setting": "Jurkat cells; 48 h", "result": 0.36}, {"measurement": "IC50", "setting": "THP-1 cells [5]; THP-1, 12 h", "result": "1.27 ± 0.2", "unit": "mg/L"}, {"measurement": "IC50", "setting": "THP-1 cells [5]; THP-1, 24 h", "result": "0.189 ± 0.1", "unit": "mg/L"}, {"measurement": "IC50", "setting": "THP-1 cells [5]; THP-1, 48 h", "result": "0.005 ± 0.01", "unit": "mg/L"}, {"measurement": "SI (selectivity index)", "setting": "THP-1 cells [5]; IC50 PBMC / IC50 THP-1, 12 h", "result": 1.07}, {"measurement": "SI (selectivity index)", "setting": "THP-1 cells [5]; IC50 PBMC / IC50 THP-1, 24 h", "result": 1.183}, {"measurement": "SI (selectivity index)", "setting": "THP-1 cells [5]; IC50 PBMC / IC50 THP-1, 48 h", "result": 3.6}, {"measurement": "IC50", "setting": "[6]; 12 h", "result": "1.36 ± 0.15", "unit": "mg/L"}, {"measurement": "IC50", "setting": "[6]; 24 h", "result": "0.224 ± 0.1", "unit": "mg/L"}, {"measurement": "IC50", "setting": "[6]; 48 h", "result": "0.018 ± 0.1", "unit": "mg/L"}]}
